According to ChEMBL document CHEMBL4842323, “Aromatic Polyketides and Hydroxamate Siderophores from a Marine-Algae-Derived Streptomyces Species” (J Nat Prod, 2021):
Structures can show the parent of a compound that is named as a salt. Calls of active or inactive are those of the source. The rule behind the calls is not given here.

How the values were obtained:
Pseudomonas aeruginosa = assay: Antibacterial activity against Pseudomonas aeruginosa ATCC10145 assessed as inhibition of bacterial growth incubated for 12 hrs by agar dilution method; type: functional, organism-based
Escherichia coli = assay: Antibacterial activity against Escherichia coli ATCC11775 assessed as inhibition of bacterial growth incubated for 12 hrs by agar dilution method; type: functional, organism-based
Staphylococcus aureus [1] = assay: Antibacterial activity against Staphylococcus aureus ATCC6538 assessed as inhibition of bacterial growth incubated for 12 hrs by agar dilution method; type: functional, organism-based
Staphylococcus aureus [2] = assay: Antibacterial activity against methicillin-resistant Staphylococcus aureus subsp. aureus ATCC43300 assessed as inhibition of bacterial growth incubated for 12 hrs by agar dilution method; type: functional, organism-based
Candida albicans = assay: Antifungal activity against Candida albicans ATCC10231 assessed as inhibition of fungal growth incubated for 12 hrs by agar dilution method; type: functional, organism-based
Nakaseomyces glabratus = assay: Antifungal activity against Candida glabrata ATCC2001 assessed as inhibition of fungal growth incubated for 12 hrs by agar dilution method; type: functional, organism-based
B16 = assay: Cytotoxicity against mouse B16 cells assessed as reduction in cell viability incubated for 72 hrs by MTT assay; type: functional, cell-based
[3] = Binding affinity to Fe3+ assessed as compound-Fe3+ complex formation incubated for 3 hrs by Chrome Azurol S assay

| SMILES | Activity (Pseudomonas aeruginosa) | Activity (Escherichia coli) | Activity (Staphylococcus aureus [1]) | Activity (Staphylococcus aureus [2]) | Activity (Candida albicans) | Activity (Nakaseomyces glabratus) | Activity (B16) | EC50 [3] |
| --- | --- | --- | --- | --- | --- | --- | --- | --- |
| COc1cc(Cc2cccc(O)c2)oc(=O)c1 | inactive | inactive | inactive | inactive | inactive | inactive | inactive | – |
| CC(=O)N(O)CCCCCNC(=O)CCC(=O)N(O)CCCCCNC(=O)CCC(=O)N(O)CCCCCN [DEFEROXAMINE MESYLATE] | – | – | – | – | – | – | – | 20.2 µM |
| COc1cc(-c2c(O)cccc2-c2ccccc2)oc(=O)c1 | inactive | inactive | inactive | inactive | inactive | inactive | inactive | – |
| O=C1CCC(=O)N(O)CCCCCNC(=O)CCC(=O)N(O)CCCCCNC(=O)CCC(=O)N(O)CCCCCN1 [NOCARDAMINE] | inactive | inactive | inactive | inactive | inactive | inactive | inactive | 22.4 µM |
| COc1cc([C@@H]2c3cccc(O)c3C(=O)C[C@@]2(O)Cc2ccccc2)oc(=O)c1 | inactive | inactive | inactive | inactive | inactive | inactive | inactive | – |
| CC(=O)N(O)CCCCCNC(=O)CCC(=O)N(O)CCCCCNC(=O)/C=C/c1ccccc1 | inactive | inactive | inactive | inactive | inactive | inactive | inactive | 39.1 µM |
| CC(=O)N(O)CCCCCNC(=O)CCC(=O)N(O)CCCCCNC(=O)CCc1ccccc1 | inactive | inactive | inactive | inactive | inactive | inactive | inactive | 12.9 µM |
| COc1cc(Cc2cccc(O)c2C(=O)c2ccccc2)oc(=O)c1 | inactive | inactive | inactive | inactive | inactive | inactive | inactive | – |
